“Also recorded” adds a separate entry of the source. Where a name gives a salt, the structure may show the parent alone. Read-outs that look alike come from different tables or passages of the source.
Columns and labels:
[1] = test system: SW480 cells; test: MTS cell viability assay, SW480; assay type: cell-based; details: read-out: IC50 ± SD
Description: (§1) 26. MTS Cell Viability Assay
(§2) Colorectal cancer cell lines, SW480 and HCT116 were seeded in 96-well plates at 4×10^3 cells/well, maintained overnight at 37° C., and incubated with the tested compounds at various concentrations. Cell viability was monitored after 72 h using a freshly prepared mixture of 1 part phenazine methosulfate (PMS, Sigma) solution (0.92 mg/mL) and 19 parts 3-(4,5-dimethylthiazol-2-yl)-5-(3-carboxymethoxyphenyl)-2-(4-sulfophenyl)-2H-tetrazolium (MTs, Promega) solution (2 mg/mL). Cells were incubated in 10 μL of this solution at 37° C. for 3 h, and A490 was measured. […] Experiments were performed in triplicate.

[2] = target: β-catenin/BCL9 PPI (Homo sapiens (Human), UniProt P35222); test: AlphaScreen competitive inhibition assay, wild-type β-catenin/BCL9 PPI; assay type: binding; details: wild-type β-catenin/BCL9 PPI, AlphaScreen competitive inhibition, mean ± SD (n=3)
Description: Cells were cultured in LB medium with 30 μg/mL kanamycin until the OD600 was approximately 0.8, and then protein expression was induced with 400 μM of IPTG at 20° C. overnight. Cells were lysed by sonication. […] Native non-denaturing gel electrophoresis was performed to confirm the homogeneity of the purified proteins. Thermal-shift assay was performed on an iCycler iQ Real Time Detection System (Bio-Rad) to monitor protein stability and detect protein aggregation. Protein unfolding was evaluated through measuring the fluorescence changes of fluorescent dye Sypro Orange when interacting with wild-type or mutant β-catenin proteins. A temperature increment of 1°/min was applied. […] All spectra were recorded at room temperature, and the baseline control containing all of the substances except protein. Sample were prepared at a concentration around 1-5 μM in a buffer of 10 mM potassium phosphate and 100 mM potassium fluoride at pH 7.0 to ensure that the transmission of light through the sample was not restricted. […] Proteins were aliquoted and stored at −80° C.
25. Alphascreen Competitive Inhibition Assays Using Wild-Type and Mutant β-Catenin Proteins

[3] = test system: HCT116 cells; test: MTS cell viability assay, HCT116; assay type: cell-based; details: read-out: IC50 ± SD
Description: as §1, §2

[4] = test system: pcDNA3.1-β-catenin transfected HEK293 cells, TOPFlash (wild-type Tcf binding sites); test: TOPFlash Wnt-responsive luciferase reporter assay; assay type: cell-based; details: 24 h treatment, hydrochloride
Description: (§3) 27. Cell Transfection and Luciferase Assay
(§4) FuGENE 6 (E2962, Promega) in a 96-well plate format was used for the transfection of HEK293 and SW480 cells according to the manufacturer's instructions. HEK293 cells were co-transfected with 45 ng of the TOPFlash (with three wild-type Tcf binding sites) or FOPFlash (with three mutant Tcf binding sites) reporter gene, 135 ng pcDNA3.1-β-catenin and 20 ng pCMV-RL normalization reporter gene. SW480 cells were co-transfected with 60 ng of the TOPFlash or FOPFlash reporter gene and 40 ng pCMV-RL normalization reporter. Cells were cultured at 37° C. for 24 h, and different concentrations of inhibitors were then added. After 24 h, the luciferase reporter activity was measured using the Dual-Glo system (E2940, Promega). Normalized luciferase activity in response to the treatment with the inhibitors was compared with that obtained from the cells treated with DMSO. Experiments were performed in triplicate.

[5] = target: β-catenin E155A/BCL9 PPI (Homo sapiens (Human), UniProt P35222, E155A); test: AlphaScreen competitive inhibition assay, β-catenin E155A mutant/BCL9 PPI; assay type: binding
Description: (§5) β-Catenin mutants D145A, E155A, D145A/E155A have been made previously.^5 Wild-type β-catenin and its mutants (residues 138-686) were cloned into a pET-28b vector carrying a C-terminal 6×histidine (Novagen), and transformed into Escherichia coli BL21 DE3 (Novagen). Cells were cultured in LB medium with 30 μg/mL kanamycin until the OD600 was approximately 0.8, and then protein expression was induced with 400 μM of IPTG at 20° C. overnight. Cells were lysed by sonication. […] The purity of β-catenin was greater than 95% as determined by SDS-PAGE gel analysis. Native non-denaturing gel electrophoresis was performed to confirm the homogeneity of the purified proteins. Thermal-shift assay was performed on an iCycler iQ Real Time Detection System (Bio-Rad) to monitor protein stability and detect protein aggregation. Protein unfolding was evaluated through measuring the fluorescence changes of fluorescent dye Sypro Orange when interacting with wild-type or mutant β-catenin proteins. A temperature increment of 1°/min was applied. CD spectra were measured on a J-815 spectropolarimeter (Jasco). All spectra were recorded at room temperature, and the baseline control containing all of the substances except protein. […]

[6] = target: β-catenin D145A/E155A double mutant/BCL9 interaction (Homo sapiens (Human), UniProt P35222, D145A/E155A); test: AlphaScreen competitive inhibition assay, β-catenin D145A/E155A double mutant/BCL9 interaction; assay type: binding; details: read-out: Ki ± SD
Description: as §5

[7] = target: β-catenin/cadherin PPI (Homo sapiens (Human), UniProt P35222); test: AlphaScreen selectivity assay, β-catenin/BCL9 over β-catenin/cadherin PPIs; assay type: binding; details: in-parallel AlphaScreen selectivity assay
Excerpt: Human BCL9 (residues 350-375), N-terminally biotinylated human BCL9 (residues 350-375), N-terminally fluorescein-labeled human BCL9 (residues 350-375), and N-terminally biotinylated human E-cadherin (residues 824-877) were synthesized by InnoPep Inc. (www.innopep.com) and HPLC purified by HPLC with purity>95%. The structures were validated by LC/MS. The sequences of these peptides have been described previously.^6
The experimental details of the AlphaScreen competitive inhibition assays for the β-catenin/BCL9 and β-catenin/E-cadherin PPIs have been described previously.^5 The concentrations of mutant β-catenin proteins used in the AlphaScreen competitive inhibition assays were the same as that of wild-type β-catenin protein.
The AlphaScreen selectivity assay was used to quantify inhibitor selectivity.

[8] = target: β-catenin D145A/BCL9 PPI (Homo sapiens (Human), UniProt P35222, D145A); test: AlphaScreen competitive inhibition assay, β-catenin D145A mutant/BCL9 PPI; assay type: binding
Description: as §5

[9] = test system: pcDNA3.1-β-catenin transfected HEK293 cells, FOPFlash (mutant Tcf binding sites); test: FOPFlash luciferase reporter assay; assay type: cell-based; details: up to 100 μM
Description: as §3, §4

Sequence of β-catenin/BCL9 PPI (P35222 138-686): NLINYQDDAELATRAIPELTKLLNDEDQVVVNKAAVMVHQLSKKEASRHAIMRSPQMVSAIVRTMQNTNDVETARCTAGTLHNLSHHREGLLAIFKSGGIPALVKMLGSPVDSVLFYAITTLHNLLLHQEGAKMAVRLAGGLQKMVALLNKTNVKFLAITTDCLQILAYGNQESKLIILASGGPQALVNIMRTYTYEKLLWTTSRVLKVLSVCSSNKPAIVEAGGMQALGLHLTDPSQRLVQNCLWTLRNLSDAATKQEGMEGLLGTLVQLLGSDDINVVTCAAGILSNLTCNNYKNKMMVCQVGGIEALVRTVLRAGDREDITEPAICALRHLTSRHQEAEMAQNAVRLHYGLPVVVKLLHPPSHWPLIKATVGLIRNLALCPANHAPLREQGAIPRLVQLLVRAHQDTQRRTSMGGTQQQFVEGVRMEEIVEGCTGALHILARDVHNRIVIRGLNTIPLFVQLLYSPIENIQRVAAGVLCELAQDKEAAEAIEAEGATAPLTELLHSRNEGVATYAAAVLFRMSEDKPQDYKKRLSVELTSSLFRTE
Sequence of β-catenin E155A/BCL9 PPI (P35222 138-686 E155A): as the sequence (P35222 138-686) above, with E18A counted along it
Sequence of β-catenin D145A/BCL9 PPI (P35222 138-686 D145A): as the sequence (P35222 138-686) above, with D8A counted along it
Sequence of β-catenin/cadherin PPI (P35222 138-686): as the sequence (P35222 138-686) above
Sequence of β-catenin D145A/E155A double mutant/BCL9 interaction (P35222 138-686 D145A/E155A): as the sequence (P35222 138-686) above, with D8A, E18A counted along it

Row | Structure (SMILES) | IC50 ([1]; Homo sapiens, SW480 colorectal cancer cells, MTS, 72 h) | Ki [2] | IC50 ([3]; Homo sapiens, HCT-116, HCT116 colorectal cancer cells, MTS, 72 h) | TOPFlash luciferase activity [4] | IC50 ([1]; SW480 colorectal cancer cells, MTS, 72 h) | IC50 ([3]; HCT116 colorectal cancer cells, MTS, 72 h) | Ki fold higher than for wild-type β-catenin/BCL9 PPI ([5]; β-catenin E155A/BCL9 PPI vs wild type) | Ki ([5]; β-catenin E155A/BCL9 PPI, AlphaScreen competitive inhibition, read-out: Ki ± SD) | Ki [6] | selectivity for β-catenin/BCL9 over β-catenin/cadherin PPIs [7] | IC50 ([1]; Homo sapiens, SW480, 72 h) | Ki fold higher than for wild-type β-catenin/BCL9 PPI ([8]; β-catenin D145A/BCL9 PPI vs wild type) | Ki ([8]; β-catenin D145A/BCL9 PPI, AlphaScreen competitive inhibition, read-out: Ki ± SD) | IC50 ([3]; Homo sapiens, HCT-116, 72 h) | FOPFlash luciferase activity [9]
1 | O=C(c1cc(F)cc(N2CCNCC2)c1)N1CCN(C(=O)c2ccc(O[C@H]3CCNC3)c(-c3ccc(F)cc3)c2)CC1 [Compound 2, (S)-(4-(3-fluoro-5-(piperazin-1-yl)benzoyl)piperazin-1-yl) (4′-fluoro-6-(pyrrolidin-3-yloxy)-[1,1′-biphenyl]-3-yl) methanone hydrochloride] | 86 ± 8.8 µM | 19 µM | 120 ± 16 µM |  |  |  |  |  |  |  |  |  |  |  | 
2 | CC1CCC(c2cc(C(=O)N3CCN(C(=O)c4cc(F)cc(N5CCNCC5)c4)CC3)ccc2O[C@H]2CCNC2)CC1.Cl (stereo partly drawn) [Compound 12, (S)-(4-(3-fluoro-5-(piperazin-1-yl)benzoyl)piperazin-1-yl) (3-(4-methylcyclohexyl)-4-(pyrrolidin-3-yloxy)phenyl) methanone hydrochloride] |  |  |  | suppressed the TOPFlash (with wild-type Tcf binding sites) luciferase activity in a dose-dependent manner; also recorded: suppress the transactivation of canonical Wnt signaling | 44 ± 6.5 µM | 39 ± 5.4 µM |  |  |  |  |  |  |  |  | 
3 | Cl.Cl.O=C(c1cc(F)cc(N2CCNCC2)c1)N1CCN(C(=O)c2ccc(O[C@H]3CCNC3)c(C3CCCCC3)c2)CC1 [Compound 10, (S)-(4-(3-Cyclohexyl-4-(pyrrolidin-3-yloxy)benzoyl)piperazin-1-yl) (3-fluoro-5-(piperazin-1-yl)phenyl) methanone hydrochloride] |  | 5.2 µM |  | suppressed the TOPFlash (with wild-type Tcf binding sites) luciferase activity in a dose-dependent manner; also recorded: suppress the transactivation of canonical Wnt signaling |  |  | 6-8 fold | 39 ± 3.3 µM | 53 ± 4.2 µM | 98 fold | 22 ± 4 µM | 6-8 fold | 29 ± 3 µM | 26 ± 6.6 µM | did not affect

From patent US11542254B2, “Methods and composition of 4-substituted benzoylpiperazine-1-substituted carbonyls as beta-catenin/B-cell lymphoma 9 inhibitors” (University of Utah Research Foundation, priority 2016, dated 2023)
